According to PubChem BioAssay AID1963970 (Molecular Pharmacology Branch, DTP, NCI, 2024):
Several values for one entry are separate records, joined by “and”; a condition that tells them apart may be missing. Equal entries are not always repeated. Each block holds one molecule with its values, some of them ahead of it.

Test system: 931267-113-T-J1-PDC multicell spheroid viability
Test: Anticancer human tumor 931267-113-T-J1-PDC patient-derived colon adenocarcinoma cell line growth inhibition [PI3K]
Conditions: for viability, T/C: stronger effect = lower value
From the text: Combinatorial screen of targeted agents with the PI3K inhibitors inavolisib, alpelisib, duvelisib, and copanlisib in multi-cell type tumor spheroids
A high-throughput screen of multi-cell type tumor spheroids was designed to identify active combinations of targeted small molecules and PI3K pathway inhibitors. Complex spheroids include a stromal component modeled by human endothelial cells (HUVEC) and fibroblasts modeled by human mesenchymal stem cells (MSCs). The concentration ranges selected for each drug and investigational agent were based upon clinically achievable concentrations if the clinical Cmax of the agent was known.
Compounds. The drugs and investigational agents: inavolisib (NSC800729), alpelisib (NSC765974), duvelisib (NSC772469), copanlisib (NSC816437), ipatasertib (NSC767898), afuresertib (NSC778305), talazoparib (NSC767125), sapanisertib (NSC764658), selumetinib (NSC741078), tovorafenib (DAY101, NSC766906), vemurafenib (NSC761431), ravoxertinib (NSC781343), sotorasib (NSC818433), MRTX1133 (NSC 836407), abemaciclib (NSC 768073), palbociclib (NSC758247), venetoclax (NSC 766270), SY5609 (NSC837396), enzalutamide (NSC755605), and darolutamide (NSC825331), were obtained from the National Cancer Institute (NCI) Developmental Therapeutics Program Chemical Repository. The FDA-approved anticancer drug set is available from the NCI Developmental Therapeutics Program. […] The stock solutions were prepared in dimethyl sulfoxide (DMSO, Sigma-Aldrich, St. Louis, MO, cat. D2650) at 800-fold the tested concentration and stored at -70 degrees C prior to their use. All drugs and investigational agents were tested over a range starting from a high concentration at or near the clinical Cmax and decreasing in half-log increments. If the clinical Cmax for an agent had not been determined, the highest concentration tested was 10 microM.
Cell Culture. All cells were maintained in an incubator at 37 degrees C and 5% CO2 with 95% humidity. The PDC lines were cultured according to standard operating procedures established by the NCI PDMR (https://pdmr.cancer.gov/sops/default.htm). All PDCs were thawed and cultured in Matrigel-coated flasks prepared with a working solution of 1X Ham's F-12 nutrient mix, without supplementation (Invitrogen, Waltham, MA, cat. 11765054), 100 U/mL penicillin-streptomycin (Invitrogen, cat. 15140122), and 2.5% Matrigel (Corning Inc., Corning, NY, cat. 354248) for the first three passages. The 354836-022-R-J1-PDC, 475296-252-R-J1-PDC, and 997726-040-R-J2-PDC lines were cultured in 6A media, which includes advanced DMEM/F-12 (Thermo Fisher Scientific, cat. 12634028), 10 mM HEPES (Thermo Fisher Scientific, cat. 15630080), 1X GlutaMAX supplement (Thermo Fisher Scientific, cat. 35050061), 0.1 mg/mL primocin (InvivoGen, San Diego, CA, cat. ant-pm-2), 10% defined fetal bovine serum, heat inactivated (HyClone Laboratories Inc., Logan, UT, cat. SH30070.03HI), 50% L-WRN conditioned media (ATCC, cat. CRL-3276), 1.25 mM N-Acetyl-L-cysteine (Sigma-Aldrich, cat. A9165), 10 mM nicotinamide (Sigma-Aldrich, cat. N0636), 1X B-27 supplement (Thermo Fisher Scientific, cat. 17504044), 1X N-2 supplement (Thermo Fisher Scientific, cat. 17502048), and 10 microM Y-27632 dihydrochloride (Tocris Bioscience, Bristol, United Kingdom, cat. 1254). The 624824-186-R-J2-PDC line was cultured in 6C/Colon 1B media, which includes all 6A media components plus 50 ng/mL human EGF recombinant protein (Thermo Fisher Scientific, cat. PHG0311). […]

[1] = curve of first compound, second compound 0.0316 µM
[2] = curve of first compound, second compound 0.1 µM
[3] = curve of first compound, second compound 0.316 µM
[4] = curve of first compound, second compound 1 µM
[5] = curve of first compound, second compound 3.16 µM
[6] = curve of first compound, second compound 10 µM
[7] = second compound 0.0316 µM, first compound 0.0316 µM
[8] = second compound 0.0316 µM, first compound 0.1 µM
[9] = second compound 0.1 µM, first compound 0.0316 µM
[10] = second compound 0.1 µM, first compound 0.1 µM
[11] = second compound 0.316 µM, first compound 0.0316 µM
[12] = second compound 0.316 µM, first compound 0.1 µM
[13] = second compound 1 µM, first compound 0.0316 µM
[14] = second compound 1 µM, first compound 0.1 µM
[15] = second compound 3.16 µM, first compound 0.0316 µM
[16] = second compound 3.16 µM, first compound 0.1 µM
[17] = second compound 10 µM, first compound 0.0316 µM
[18] = second compound 10 µM, first compound 0.1 µM
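Also: viability read 7 days after compound addition.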

IC50 [1]: > 100 nM | IC50 [2]: > 100 nM | IC50 [3]: > 100 nM | IC50 [4]: > 100 nM | IC50 [5]: > 100 nM | IC50 [6]: > 100 nM
SMILES: Cn1ncnc1[C@H]1c2n[nH]c(=O)c3cc(F)cc(c23)N[C@@H]1c1ccc(F)cc1 + Cc1nc(NC(=O)N2CCCC2C(N)=O)sc1-c1ccnc(C(C)(C)C(F)(F)F)c1
viability, T/C (second compound 0.0316 µM, first compound 0.000316 µM): 107% | viability, T/C (second compound 0.0316 µM, first compound 0.001 µM): 98.2% | viability, T/C (second compound 0.0316 µM, first compound 0.00316 µM): 84.2% | viability, T/C (second compound 0.0316 µM, first compound 0.01 µM): 94.1% | viability, T/C [7]: 91% | viability, T/C [8]: 97.5% | viability, T/C (second compound 0.1 µM, first compound 0.000316 µM): 113% | viability, T/C (second compound 0.1 µM, first compound 0.001 µM): 94.8% | viability, T/C (second compound 0.1 µM, first compound 0.00316 µM): 107% | viability, T/C (second compound 0.1 µM, first compound 0.01 µM): 98.8% | viability, T/C [9]: 90.2% | viability, T/C [10]: 75.1% | viability, T/C (second compound 0.316 µM, first compound 0.000316 µM): 93.9% | viability, T/C (second compound 0.316 µM, first compound 0.001 µM): 89.5% | viability, T/C (second compound 0.316 µM, first compound 0.00316 µM): 89.5% | viability, T/C (second compound 0.316 µM, first compound 0.01 µM): 95% | viability, T/C [11]: 82% | viability, T/C [12]: 89.8% | viability, T/C (second compound 1 µM, first compound 0.000316 µM): 74.5% | viability, T/C (second compound 1 µM, first compound 0.001 µM): 73.7% | viability, T/C (second compound 1 µM, first compound 0.00316 µM): 86.3% | viability, T/C (second compound 1 µM, first compound 0.01 µM): 78.5% | viability, T/C [13]: 79.7% | viability, T/C [14]: 72.1% | viability, T/C (second compound 3.16 µM, first compound 0.000316 µM): 78.9% | viability, T/C (second compound 3.16 µM, first compound 0.001 µM): 68.6% | viability, T/C (second compound 3.16 µM, first compound 0.00316 µM): 61.7% | viability, T/C (second compound 3.16 µM, first compound 0.01 µM): 63.8% | viability, T/C [15]: 70.7% | viability, T/C [16]: 64.6% | viability, T/C (second compound 10 µM, first compound 0.000316 µM): 57.7% | viability, T/C (second compound 10 µM, first compound 0.001 µM): 55.2% | viability, T/C (second compound 10 µM, first compound 0.00316 µM): 54.2% | viability, T/C (second compound 10 µM, first compound 0.01 µM): 51.8% | viability, T/C [17]: 59.2% | viability, T/C [18]: 52.8%

IC50 (curve of compound): > 100 nM
SMILES: Cn1ncnc1[C@H]1c2n[nH]c(=O)c3cc(F)cc(c23)N[C@@H]1c1ccc(F)cc1
viability, T/C (compound 0.000316 µM): 104% [middle of 4 runs] | viability, T/C (compound 0.001 µM): 107% [middle of 4 runs] | viability, T/C (compound 0.00316 µM): 101% [middle of 4 runs] | viability, T/C (compound 0.01 µM): 111% and 106% and 97% (2×) | viability, T/C (compound 0.0316 µM): 112% [middle of 4 runs] | viability, T/C (compound 0.1 µM): 95.6% [middle of 4 runs]

IC50 [1]: > 10000 nM | IC50 [2]: > 10000 nM | IC50 [3]: > 10000 nM | IC50 [4]: > 10000 nM | IC50 [5]: > 10000 nM | IC50 [6]: > 10000 nM
SMILES: CC1(C)CCC(Nc2ncc(C(F)(F)F)c(-c3c[nH]c4c(P(C)(C)=O)c(C#N)ccc34)n2)CN1 (stereo unspecified) + CC(Nc1ncnc2nc[nH]c12)c1cc2cccc(Cl)c2c(=O)n1-c1ccccc1
viability, T/C [7]: 107% | viability, T/C [8]: 105% | viability, T/C (second compound 0.0316 µM, first compound 0.316 µM): 97% | viability, T/C (second compound 0.0316 µM, first compound 1 µM): 88.5% | viability, T/C (second compound 0.0316 µM, first compound 3.16 µM): 90.8% | viability, T/C (second compound 0.0316 µM, first compound 10 µM): 74.1% | viability, T/C [9]: 114% | viability, T/C [10]: 105% | viability, T/C (second compound 0.1 µM, first compound 0.316 µM): 93.6% | viability, T/C (second compound 0.1 µM, first compound 1 µM): 93.1% | viability, T/C (second compound 0.1 µM, first compound 3.16 µM): 91.5% | viability, T/C (second compound 0.1 µM, first compound 10 µM): 81.6% | viability, T/C [11]: 104% | viability, T/C [12]: 104% | viability, T/C (second compound 0.316 µM, first compound 0.316 µM): 103% | viability, T/C (second compound 0.316 µM, first compound 1 µM): 92.8% | viability, T/C (second compound 0.316 µM, first compound 3.16 µM): 95.1% | viability, T/C (second compound 0.316 µM, first compound 10 µM): 67.4% | viability, T/C [13]: 106% | viability, T/C [14]: 100% | viability, T/C (second compound 1 µM, first compound 0.316 µM): 94.6% | viability, T/C (second compound 1 µM, first compound 1 µM): 82.7% | viability, T/C (second compound 1 µM, first compound 3.16 µM): 96.5% | viability, T/C (second compound 1 µM, first compound 10 µM): 69.5% | viability, T/C [15]: 106% | viability, T/C [16]: 100% | viability, T/C (second compound 3.16 µM, first compound 0.316 µM): 89.4% | viability, T/C (second compound 3.16 µM, first compound 1 µM): 87% | viability, T/C (second compound 3.16 µM, first compound 3.16 µM): 82.6% | viability, T/C (second compound 3.16 µM, first compound 10 µM): 69.5% | viability, T/C [17]: 92.2% | viability, T/C [18]: 97% | viability, T/C (second compound 10 µM, first compound 0.316 µM): 80.1% | viability, T/C (second compound 10 µM, first compound 1 µM): 82.5% | viability, T/C (second compound 10 µM, first compound 3.16 µM): 83.1% | viability, T/C (second compound 10 µM, first compound 10 µM): 56.2%
